Source: patent US7109245B2, “Vasoconstrictor cannabinoid analogs” (priority 2001, dated 2006)
“Also recorded” adds a separate entry of the source. Where two headings read alike, the source gives them in different places.

What was measured:
mesenteric arteries [1] = conditions: cited from earlier work; for dilation of isolated mesenteric arteries: normal rats and mice, CB1 knockout and CB1/CB2 double knockout mice
rats and mice = conditions: in vivo; cited from earlier work
[2] = test system: normal rats and mice, CB1 knockout mice, CB1/CB2 double knockout mice; conditions: cited from earlier work
mesenteric arteries [3] = test: Mesenteric vasodilator response
[4] = test system: Rat isolated mesenteric branch arteries; test: Vasorelaxation of rat isolated mesenteric branch arteries precontracted with phenylephrine, wire myograph
Protocol: Arteries were mounted in a wire myograph, and precontracted with phenylephrine. Relaxation is expressed as % of the phenylephrine-induced vasoconstrictor tone, 0% representing maximal relaxation.
Rat isolated mesenteric branch arteries (˜200 μm in diameter) were precontracted with phenylephrine and measurements were recorded with a wire myograph.

[5] = molecular target: brain cannabinoid (CB1) receptor (Homo sapiens, UniProt P21554); conditions: cited from earlier work
ICR mice = test: Blood pressure of pentobarbital-anesthetized ICR mice (femoral artery cannula); assay type: in vivo, mouse
Excerpt: By way of example, ICR mice were anesthetized with pentobarbital, and polyethylene cannulae were inserted into the femoral artery and vein for monitoring blood pressure and injecting drugs, respectively. Blood pressure was monitored directly by connecting the arterial cannula to a pressure transducer and physiograph.

LPS-induced hypotension = LPS-induced hypotension in anesthetized mice; assay type: in vivo, mouse
Excerpt: Endotoxin was used to induce hypotension in control mice as well as in mice deficient in CB1 or both CB1 and CB2 receptors.

[6] = test system: mesenteric branch arteries isolated from wild-type and CB1 receptor deficient mice; test: Calcium-induced relaxation of mouse isolated mesenteric branch arteries precontracted with norepinephrine; conditions: 10 μM O-1918

brain cannabinoid (CB1) receptor, sequence (P21554 whole entry, species assumed): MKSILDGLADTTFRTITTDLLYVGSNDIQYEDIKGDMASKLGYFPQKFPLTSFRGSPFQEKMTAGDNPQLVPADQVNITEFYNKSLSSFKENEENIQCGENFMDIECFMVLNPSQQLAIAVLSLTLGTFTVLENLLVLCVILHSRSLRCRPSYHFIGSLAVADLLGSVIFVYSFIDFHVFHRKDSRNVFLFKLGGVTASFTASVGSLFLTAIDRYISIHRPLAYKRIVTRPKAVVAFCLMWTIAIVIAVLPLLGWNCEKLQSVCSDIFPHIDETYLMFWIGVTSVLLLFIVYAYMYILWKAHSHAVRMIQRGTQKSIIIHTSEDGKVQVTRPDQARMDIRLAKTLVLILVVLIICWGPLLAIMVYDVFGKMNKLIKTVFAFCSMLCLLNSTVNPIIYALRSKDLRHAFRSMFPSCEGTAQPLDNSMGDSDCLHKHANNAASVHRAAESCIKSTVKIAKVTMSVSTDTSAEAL

C=C(C)[C@@H]1CCC(C)=C[C@H]1c1c(O)cc(CCCCC)cc1O [cannabidiol]
antagonism of vasodilator effect of Abn-cbd (mesenteric arteries [1]; mesenteric): able to antagonize the vasodilator effect of Abn-cbd
dilation of isolated mesenteric arteries (mesenteric arteries [1]): does not elicit mesenteric vasodilation
neurobehavioral effects (rats and mice): devoid of neurobehavioral effects

CCCCCCC(C)(C)c1cc(O)c2c(c1)OC(C)(C)[C@@H]1CC=C(CO)C[C@@H]21 [HU-210]
hypotensive effect in CB1 receptor deficient mice ([2]; CB1 receptor deficient mice): absent

C=C(C)[C@@H]1CCC(C)=C[C@H]1c1c(O)cc(O)cc1CCCCC [Abn-cbd, abnormal cannabidiol]
dilation of isolated mesenteric arteries (mesenteric arteries [1]): dilate isolated mesenteric arteries
vasodilator response in presence of L-NAME and indomethacin (mesenteric arteries [3]; 100 μM L-NAME and 10 μM indomethacin): remains unchanged
vasodilation in presence of capsazepine (mesenteric arteries [3]; bolus injection of 4 mg Abn-cbd, 5 μM capsazepine): elicited the same long lasting vasodilation
type of agonism in vasorelaxation [4]: full agonist
EC50 ([4]; Abn-cbd alone, read-out: vasorelaxation EC50): 3.3 ± 0.5 µM
EC50 ([4]; in the presence of 10 μM O-1918, read-out: vasorelaxation EC50 in the presence of O-1918): 26 ± 10 µM
effect on blood pressure ([2]; normal rats and mice, CB1 knockout and CB1/CB2 double knockout mice): lower blood pressure
neurobehavioral effects (rats and mice): does not elicit cannabinoid-like neurobehavioral effects
binding to CB1 receptor [5]: does not bind to CB1 receptors
effect on blood pressure (ICR mice; intravenous injection of 10 mg/kg Abn-cbd): transient drop in blood pressure followed by a brief increase and then a more prolonged, significant decrease in pressure

C=C(C)C1CCC(C)=CC1c1c(OC)cc(C)cc1OC (stereo not shown) [O-1918]
prevention of LPS-induced hypotension (LPS-induced hypotension; 10 mg/kg O-1918, normal anesthetized mice, 100 mg/kg LPS): prevent the hypotension
inhibition of LPS-induced hypotension (LPS-induced hypotension; pretreatment 1 to 10 mg/kg O-1918, ICR mice, 100 ng/kg LPS i.v., FIG. 3): dose-dependently inhibited
inhibition of vasorelaxation caused by CGRP ([4]; 10 μM O-1918): did not inhibit the vasorelaxation
inhibition of vasorelaxation caused by carbachol ([4]; 10 μM O-1918): did not inhibit the vasorelaxation
effect on vascular tone ([4]; concentrations up to 30 μM): did not alter vascular tone
shift of dose-response curve to Abn-cbd ([4]; preincubation with 1–10 μM O-1918, FIG. 4): progressively right-shifted; also recorded: concentration-dependent inhibition of the relaxing effect of Abn-cbd
inhibition of calcium-induced relaxation [6]: inhibited the calcium-induced relaxation
antagonism of hypotensive effect of Abn-cbd (ICR mice; 10 mg/kg O-1918, 10 min before 10 mg/kg Abn-cbd, FIG. 1A): the prolonged hypotensive phase of the effect of Abn-cbd was absent
effect on blood pressure of the antagonist alone (ICR mice; 10 mg/kg O-1918 injected alone): did not influence blood pressure
antagonism of hypotensive effect of HU-210 (CB1/CB2 agonist) (ICR mice; FIG. 1B): did not antagonize the hypotensive effect of HU-210

Cc1c(C(=O)NN2CCCCC2)nn(-c2ccc(Cl)cc2Cl)c1-c1ccc(Cl)cc1 [SR141716A]
inhibition of LPS-induced hypotension (LPS-induced hypotension; pretreatment 3 mg/kg SR141716A, wild-type mice, CB1 deficient and CB1/CB2 deficient mice, FIG. 2): inhibited; also recorded: could be prevented
